Columns and labels:
[1] = test system: peptide-stimulated murine CD8-positive T cells; assay: Restimulating HPV18 peptide-stimulated murine T cells with peptide-presenting LKK cells (IFNγ FACScan); type: cell-based, C3H mice; settings: for proportion of CD8-positive T cells reactive on the basis of IFNγ expression: 1 μg peptide/ml, LKK cells, T cells of HPV18 CVLP-inoculated C3H mice, FIG. 3, 4; for T cell epitope assignment: conclusion from FIG. 3, 4
Experimental: Murine T cells (4×10^5) derived from C3H mice inoculated with HPV18 L1ΔCDIE71-53DI CVLPs and HPV18 L1ΔCDIE71-6ODI CVLPs were stimulated for 5 weeks with HPV18 L1 or E7 peptide pools at 37° C., with the weekly addition of 1 μg of each individual peptide/ml and 10^5 antigen-presenting cells (irradiated splenocytes), and harvested. The cells were then restimulated, at 37° C. and in 100 μl of medium, with 1 μg of the peptides given on the X axis in FIG. 3/ml and 10^5 antigen-presenting cells (LKK) in the presence of 10 IU of IL2/ml. Cells which were only incubated with buffer served as the negative control.
1 μl of monensin (300 μm) was added after an hour. The cells were incubated at 37° C. for a further 5 hours. The cells were then fixed and permeabilized and stained with α-mouse CD8/PE, with α-mouse CD4/cychrome and with α-mouse interferony/FITC. The labeling of the cells was analyzed in a FACScan Calibur and the results of the measurement were analyzed using Cellquest software.

RMA cells = assay: 51Cr release: lysing HPV18 peptide-loaded RMA cells (example 17); type: cell-based, murine; settings: for T cell epitope assignment: conclusion from FIG. 16 upper part; for specific lysis of target cells (51Cr release): peptide-loaded RMA cells, effector:target 20, FIG. 16 upper part
Experimental: In analogy with example 4, RMA or LKK cells were radioactively labeled with ^51Cr and incubated with the peptides (Q43 and Q44 in the upper part of FIG. 16 and Q49 in the lower part of FIG. 16) which are plotted on the X axis. Cells without peptide served as negative controls. T cells which had previously been stimulated with the peptide pool were then added.
The lysis of the RMA cells or LKK cells by the T cells was measured by the release of the ^51Cr and calculated as described in example 4.

human T cells = assay: Summary of examples 3 to 18: epitopes recognized by human T cells; type: cell-based; settings: Table 3, HPV16 peptides, species human; TC cytotoxic, TH T helper
[2] = test system: CVLP-stimulated T cells (CD4-positive); assay: Restimulating HPV16 CVLP-stimulated T cells with BLCL presenting pools or P39 (example 9; IFNγ and IL4); type: cell-based, human; settings: for T cell epitope assignment (TH2): peptide common to two reactive HPV16 pools, CD4/IL4
Experimental: (§1) In analogy with example 6, human T cells derived from a non-HLA-typed blood donor were stimulated with HPV16L1ΔC*E71-55 CVLPs and harvested.
(§2) The T cells were then restimulated, at 37° C. and in 100 μl of medium, with the peptide pools from example 7 and 10^5 antigen-presenting cells (donor-identical BLCL) in the presence of 10 IU of IL2/ml. Use was made, in this connection, of quantities of the peptide pools which was such that 1 μg/ml was added in the case of each individual peptide. Cells which were only incubated with buffer served as the negative control while cells which were incubated with HPV16 L1 peptide pool served as positive controls.
(§3) 1 μl of monensin was added after an hour. The cells were then incubated at 37° C. for a further 5 hours. After that, the cells were fixed and permeabilized and stained with α-human CD8/APC, with α-human CD4/PerCP and with α-human IFNγ/FITC. The labeling of the cells was examined in a FACScan Calibur and the results of the measurements were analyzed using Cellquest software.

[3] = test system: CVLP-stimulated CD8-positive T cells; assay: Restimulating HPV16 CVLP-stimulated T cells with BLCL presenting HPV16 peptide pools (example 10); type: cell-based, human; settings: peptide common to two reactive HPV16 pools
Experimental: as §1, §2, §3

[4] = test system: CVLP-stimulated human CD4-positive T cells; assay: Restimulating HPV18 CVLP-stimulated T cells with BLCL presenting HPV18 peptide pools (example 6); type: cell-based; settings: peptide common to two reactive HPV18 pools; CD4/IFNγ
Experimental: Human T cells (4×10^5) from a non-HLA-typed blood donor were stimulated for 1 week with HPV18 L1ΔCDIE71-53DI CVLPs and HPV18 L1ΔACDIE71-60DI CVLPS, 800 U of human GM-CSF/ml and 500 U of human IL4/ml and also, for a further 5 weeks, with HPV18 L1ΔCDIE71-53DI CVLPs and HPV18 L1ΔCDIE71-6ODI CVLPs at 37° C., with the weekly addition of 1 μg of the CVLPs mixLure (ratio of the two constructs 1:1)/ml and 10^5 antigen-presenting cells (irradiated PMBC), and harvested.
The 20 mer peptides Q1 to 52 were assembled into peptide pools A to H and 1 to 7, respectively, in accordance with the matrix
The T cells were then restimulated, at 37° C. and in 100 μl of medium, with the peptide pools and 10^5 antigen-presenting cells (donor-identical BLCL) in the presence of 10 IU of IL2/ml. The quantities of the peptide pools which were used in this connection were such that. 1 μg/ml was added in the case of each individual peptide.
Cells which were only incubated with buffer served as the negative control while cells incubated with the HPV18 L1 peptide pool and the HPV18 E7 peptide pool, respectively, served as positive controls.
as §3, with “analyzed” for “examined”

[5] = test system: HPV18 CVLP-stimulated human T cells; assay: Restimulating HPV18 CVLP-stimulated T cells with BLCL presenting Q38, Q39, Q46 or Q47 (example 13); type: cell-based; settings: conclusion from FIG. 12 top right
Experimental: In analogy with example 6, human T cells (4×10^5) derived from a non-HLA-typed blood donor were stimulated with HPV18L1ΔCDIE71-53DI CVLPs and HPV18L1ΔCDIE71-60DI CVLPs and harvested.
The T cells were then restimulated, at 37° C. and in 100 μl of medium, with in each case 1 μg of peptide Q38, Q39, Q46 or Q47/ml and 10^5 antigen-presenting cells (donor-identical BLCL) in the presence of 10 IU of IL2/ml. Cells which were only incubated with buffer served as the negative control while cells which were incubated with the HPV18 L1 peptide pool or the E7 peptide pool served as positive controls.
as §3

[6] = test system: HPV18 L1 peptide pool-stimulated CD8-positive T cells; assay: Restimulating HPV18 L1 peptide-stimulated T cells with Q9-presenting BLCL (example 8); type: cell-based, human
Experimental: In analogy with example 3, human T cells (4×10^5) derived from an HLA A24-positive donor were stimulated for 3 weeks with the HPV18 L1 peptide pool, at 37° C., with the weekly addition of 1 μg of each individual peptide/ml and 10^5 antigen-presenting cells (irradiated PMBC), and harvested.
The cells were then restimulated, at 37° C. in 100 μl of medium, with 10 μg of the HPV18 L1 peptide Q9/ml and 10^5 antigen-presenting cells (donor-identical BLCL) in the presence of 10 IU of IL2/ml. Cells which were only incubated with buffer served as the negative control.
as §3, with “of monensin (300 μM) was added” for “of monensin was added”, “cells were then fixed and” for “cells were fixed and”

[7] = test system: CVLP-stimulated CD8-positive T cells; assay: Restimulating HPV16 CVLP-stimulated T cells with BLCL presenting HPV16 peptide pools (example 14); type: cell-based, human; settings: peptide common to two reactive HPV16 pools; CD8/IFNγ
Experimental: as §1
The T cells were then restimulated, at 37° C. and in 100 μl of medium, with the peptide pools from example 7 and 10^5 antigen-presenting cells (donor-identical BLCL) in the presence of 10 IU of IL2/ml. Use was made, in this connection, of quantities of the peptide pools which were such that 1 μg/ml was added in the case of each individual peptide. Cells which were only incubated with buffer served as the negative control, while cells which were incubated with the HPV16 L1 or E7 peptide pool served as positive controls.
as §3

YPLGRKFLVQAGMHGPKATL [Q43, HPV18 L1 463-474 and E7 1-8]
proportion of CD8-positive T cells reactive on the basis of IFNγ expression [1]: brought about a restimulation
T cell epitope assignment [1]: contain H2k-restricted cytotoxic T cell epitopes
T cell epitope assignment (RMA cells): H2b-restricted cytotoxic T cell epitopes
specific lysis of target cells (51Cr release) (RMA cells): able to efficiently lyse

PPPGGTLEDTYRFVTSQAIA [P38, HPV16 L1 408-427]
Epitope type (human T cells): TH2
T cell epitope assignment (TH2) [2]: contains a TH2 epitope

YLPPVPVSKVVSTDEYVART [P2, HPV16 L1 12-31]
T cell epitope assignment [3]: contain a cytotoxic T cell epitope

MALWRPSDNTVYLPPPSVAR [Q1, HPV18 L1 1-20]
T cell epitope assignment [4]: contain T helper epitopes

CC[C@H](C)[C@H](NC(=O)[C@H](C)NC(=O)[C@@H](NC(=O)[C@H](CO)NC(=O)[C@H](CCC(N)=O)NC(=O)[C@@H](NC(=O)[C@H](Cc1ccccc1)NC(=O)[C@H](CCCNC(=N)N)NC(=O)[C@@H](N)Cc1ccc(O)cc1)C(C)C)C(C)C)C(=O)N[C@H](C(=O)N[C@@H](CS)C(=O)N[C@@H](CCC(N)=O)C(=O)N[C@@H](CCCCN)C(=O)N[C@@H](CC(=O)O)C(=O)N[C@@H](C)C(=O)N[C@@H](C)C(=O)N1CCC[C@H]1C(=O)N[C@@H](C)C(=O)N[C@@H](CCC(=O)O)C(=O)N[C@@H](CC(N)=O)C(=O)O)[C@@H](C)O [Q39]
T cell epitope assignment (cytotoxic) [5]: contain cytotoxic T cell epitopes

MHGPKATLQDIVLHLEPQNE [Q44, HPV18 E7 1-20]
proportion of CD8-positive T cells reactive on the basis of IFNγ expression [1]: brought about a restimulation
T cell epitope assignment [1]: contain H2k-restricted cytotoxic T cell epitopes
T cell epitope assignment (RMA cells): H2b-restricted cytotoxic T cell epitopes
specific lysis of target cells (51Cr release) (RMA cells): able to efficiently lyse

RFVTSQAIACQKHTPPAPKE [P39, HPV16 L1 419-438]
Epitope type (human T cells): TH1, TH2
T cell epitope assignment (TH1) ([2]; CD4-positive and IFNγ-positive, pools G and 5 and P39 alone): contains a T helper epitope
proportion of CD4-positive and IFNγ-positive cells (TH1) ([2]; HPV16 pools or P39, donor-identical BLCL, FIG. 8 top): very high
T cell epitope assignment (TH2) [2]: contains a TH2 epitope

IYNPETQRL [HPV18 L1 90-98, contained in peptide Q9]
T cell epitope assignment ([6]; 9mer within Q9, deduced from Q9 result and HLA A24 prediction): HLA A24-restricted cytotoxic T cell epitope

SIYNPETQRLVWACAGVEIG [Q9, HPV18 L1 89-108]
proportion of CD8-positive T cells reactive on the basis of IFNγ expression ([6]; 10 μg Q9/ml, donor-identical BLCL, HLA A24-positive donor, FIG. 7): brought about a restimulation
T cell epitope assignment ([6]; conclusion from FIG. 7): contains an HLA A24-restricted cytotoxic T cell epitope

VGHPYFPIKKPNNNKILVPK [P5, HPV16 L1 45-64]
T cell epitope assignment [3]: contain a cytotoxic T cell epitope
T cell epitope assignment [7]: contain a cytotoxic T cell epitope

PYDKLKFWNVDLKEKFSLDL [Q41, HPV18 L1 441-460]
proportion of CD8-positive T cells reactive on the basis of IFNγ expression [1]: brought about a restimulation
T cell epitope assignment [1]: contain H2k-restricted cytotoxic T cell epitopes
T cell epitope assignment [4]: contain T helper epitopes

GGNKQDIPKVSAYQYRVFRV [Q6, HPV18 L1 56-75]
T cell epitope assignment [4]: contains a T helper epitope

GLQYRVFRIHLPDPNKFGFP [P7]
T cell epitope assignment [3]: contain a cytotoxic T cell epitope

— patent US20040091479A1, “T-cell epitope of the papillomavirus l1 and e7 protein and use thereof in diagnostics and therapy” (priority 2000, published 2004)
